Where two headings read alike, the source gives them in different places.
Tests used:
[1] = system: Cochlodinium Polykrikoides; assay: Microalgae-destroying effect by IC50 measurement (cell count); type: cell-based; settings: Margalefidinium polykrikoides, 24 h, read-out: IC50 Cochlodinium Polykrikoides
Description: (§1) The IC50 value was obtained according to Equation 1:
(§2) The algicidal activity of each compound was calculated using Equation 2: Algicidal activity (%)=(1−Tt/Ct)×100 <Equation 2>
(§3) In Equation 2, T (treatment group) and C (control group) represent algae densities in cell counts when each compound was inoculated and was not inoculated, respectively, and t represents the number of days which had passed after the inoculation.
(§4) First, the above-listed microalgae were cultured in a culture flask at a temperature of about 20° C. under light conditions, and a medium used was Guillard's f/2 medium which is commonly used in the art (Guillard R R L and Keller M D. Culturing dinoflagellates. In: Spector (Ed.), Dinoflagellates. New York: Academic Press; 1984, 391442).
(§5) After the cultured microalgae were transferred onto a 24-well plate, Chattonella Marina, Heterosigma circularisquama, Cochlodinium Polykrikoides, and Heterosigma akashiwo, which were in an exponential growth phase, were treated with Compounds 1 to 3, 5 to 10, 12, 13, 17 to 43, and 45 to 47 synthesized in Examples 1 to 3, 5 to 10, 12, 13, 17 to 43, and 45 to 47 at concentrations of 0.1 uM, 0.2 uM, 0.5 uM, 1 uM, 2 uM, and 5 uM, and then cultured for 1 day.
(§6) Control groups were not treated with any of the compounds synthesized in the above-identified examples. After incubation, the number of cells of each alga was counted using a Burker-Tukr hemocytometer, and IC50 values were calculated according to Equation 1 using SigmaPlot Version 11.2 software (Standard curve: the four-parameter logistic curve).

Heterosigma Akashiwo [2] = assay: as above; type: cell-based; settings: 24 h, read-out: IC50 Heterosigma Akashiwo
Description: (§7) The IC50 value was obtained according to Equation 1: […]
as §4, §5, §6

[3] = system: Heterocapsa Circularisquama; assay: as above; type: cell-based; settings: 24 h
Description: as §7, §4, §5, §6

Chattonella Marina [4] = assay: as above; type: cell-based; settings: 24 h, read-out: IC50 Chattonella Marina
Description: as §7, §4, §5, §6

Microcystis aeruginosa [5] = assay: Microalgae-destroying effect of Compound 2, viable cell counts; type: cell-based; settings: 0.5 μM, 1 μM, and 2 μM, observed for 2 days; FIG. 3
Description: To investigate a microalgae-destroying effect of Compound 2 synthesized in Example 2, culture solutions of Microcystis aeruginosa (40 mL; initial population number: 100×10^4/mL) in DMSO and BG11 medium were each treated with solutions of Compound 2 at 0.5 μM, 1 μM, and 2 μM and observed for 2 days. A culture solution of the microalgae not treated with a solution of Compound 2 was used as a control group.

Microcystis aeruginosa [6] = assay: Microalgae-destroying effect by IC50 measurement (cell count); type: cell-based; settings: Microcystis aeruginosa, 120 h, read-out: IC50 Microcystis aeruginosa
Description: as §1, §2, §3, §4
Microcystis aeruginosa was treated with Compounds 1 to 3, 5 to 10, 12, 13, 17 to 43, and 45 to 51 synthesized in Examples 1 to 3, 5 to 10, 12, 13, 17 to 43, and 45 to 51 at concentrations of 0.1 uM, 0.2 uM, 0.5 uM, 1 uM, 2 uM, 5 uM, 10 uM, 15 uM, and 20 uM and then cultured for 5 days.
as §6

Daphnia magna = assay: Acute toxicity test on Daphnia magna; type: in vivo; settings: 5 μM, 2 days; FIG. 4
Description: An acute toxicity test was performed on Daphnia magna (water flea) using Compounds 33 and 35 synthesized in Examples 33 and 35. In particular, culture solutions of Daphnia magna (200 mL, 30 animals) in DMSO and M4 medium were treated with solutions of Compounds 33 and 35 at 5 μM, 10 μM, and 15 μM for 2 days.

Danio rerio = assay: Acute toxicity test on Danio rerio; type: in vivo; settings: 15 μM, 2 weeks; FIG. 5
Description: An acute toxicity test on Danio rerio (zebrafish) was performed using compounds 33 and 35 synthesized in Examples 33 and 35. In particular, 2-cm-sized Danio rerio, which had been 3 months since hatching, was acclimatized for 14 days before the start of the experiment. The Danio rerio were feed twice a day during the acclimation period. Next, solutions of Compounds 33 and […] were prepared at concentrations of 0, 5, 10, 15, 20, 25, and 30 μM. Culture solutions of the Danio rerio (10 L, initial population number: 10 zebrafish in total (1 zebrafish/L)) were treated for 2 weeks with the solutions of Compounds 33 and 35 at different concentrations to thereby perform the acute toxicity test.

[7] = system: Cochlodinium Polykrikoides; assay: Microalgae-destroying effect by surviving cells rate measurement; type: cell-based; settings: 1 μM, about 6 hours
Description: (§8) To investigate a microalgae-destroying effect of Compound 35 synthesized in Example 35, culture solutions of Chattonella Marina, Heterosigma Circularisquama, Cochlodinium Polykrikoides, and Heterosigma akashiwo (40 mL, initial population number: about 15×10^4 to 18×10^4/mL) were each treated with a solution of Compound 35 (1 μM in dimethyl sulfoxide (DMSO) and f/2 medium) for about 6 hours. A microalgae culture solution not treated with a solution of Compound 35 was used as a control group. After the treatment, viable cell ratios of the microalgae with respect to time were measured, and it was also observed whether the microalgae were destroyed.

Heterosigma Akashiwo [8] = assay: as above; type: cell-based; settings: 1 μM, about 6 hours
Description: as §8

Chattonella Marina [9] = assay: as above; type: cell-based; settings: 1 μM, about 6 hours
Description: as §8

[10] = system: Heterosigma Circularisquama; assay: as above; type: cell-based; settings: 1 μM, about 6 hours
Description: as §8

[11] = Table 1, 3,4-dichlorobenzylamines, 0.1-5 uM, cultured 1 day
[12] = Table 1, 3,4-dichlorobenzylamines, 0.1-5 uM, cultured 1 day, read-out: IC50 Heterocapsa Circularisquama
[13] = Table 1, 3,4-dichlorobenzylamines, 0.1-20 uM, cultured 5 days
[14] = Table 2, 0.1-5 uM, cultured 1 day
[15] = Table 2, 0.1-5 uM, cultured 1 day, read-out: IC50 Heterocapsa Circulariaquama

SMILES | IC50 [1, 11] | IC50 (Heterosigma Akashiwo [2]; [11]) | IC50 [3, 12] | IC50 (Chattonella Marina [4]; [11]) | IC50 (Microcystis aeruginosa [6]; [13]) | IC50 [1, 14] | IC50 (Heterosigma Akashiwo [2]; [14]) | IC50 [3, 15] | IC50 (Chattonella Marina [4]; [14]) | IC50 (Microcystis aeruginosa [6]) | also measured
CCN(CC)CCCNCc1ccc(Cl)c(Cl)c1 [Compound 2, N′-(3,4-Dichloro-benzyl)-N,N-diethyl-propane-1,3-diamine] | 327 nM | 1300 nM | 3400 nM | 2600 nM | 570 nM |  |  |  |  |  | viable cell counts of Microcystis with respect to time (Microcystis aeruginosa [5]): high algicidal effect
Clc1ccc(CNC2CCCC2)cc1Cl [Compound 33, Cyclopentyl-(3,4-dichloro-benzyl)-amine] | 360 nM | 243 nM | 1040 nM | 320 nM | 19500 nM |  |  |  |  |  | survival ratio (Daphnia magna): about 100%; survival ratio (Danio rerio): 100%
Clc1ccc(CNC2CCCCC2)cc1Cl [Compound 35, Cyclohexyl-(3,4-dichloro-benzyl)-amine] | 150 nM | 218 nM | 1140 nM | 290 nM | 14600 nM |  |  |  |  |  | survival ratio (Danio rerio): 100%; viable cell ratio with respect to time ([7]; FIG. 1): decreased with time; whether the microalgae were destroyed (microscope images) ([7]; FIG. 2): destroyed; viable cell ratio with respect to time (Heterosigma Akashiwo [8]; FIG. 1): decreased with time; whether the microalgae were destroyed (microscope images) (Heterosigma Akashiwo [8]; FIG. 2): destroyed; viable cell ratio with respect to time (Chattonella Marina [9]; FIG. 1): decreased with time; whether the microalgae were destroyed (microscope images) (Chattonella Marina [9]; FIG. 2): destroyed; viable cell ratio with respect to time ([10]; FIG. 1): decreased with time; whether the microalgae were destroyed (microscope images) ([10]; FIG. 2): destroyed
c1ccc(CNCCc2ccccn2)cc1 [Compound 37, Benzyl-(2-pyridin-2-yl-ethyl)-amine] |  |  |  |  |  | > 5000 nM | 130 nM | > 5000 nM | 340 nM | > 5000 nM | 
Oc1ccccc1CNCCc1ccccn1 [Compound 38, 2-[(2-Pyridin-2-yl-ethylamino)-methyl]-phenol] |  |  |  |  |  | > 5000 nM | 130 nM | > 5000 nM | 910 nM | > 5000 nM | 
Brc1ccccc1CNCCc1ccccn1 [Compound 39, (2-Bromo-benzyl)-(2-pyridin-2-yl-ethyl)-amine] |  |  |  |  |  |  |  |  |  | > 5000 nM | IC50 [1]: > 5000 nM; IC50 (Heterosigma Akashiwo [2]): 280 nM; IC50 ([3]; read-out: IC50 Heterocapsa Circulariaquama): > 5000 nM; IC50 (Chattonella Marina [4]): 1120 nM
Brc1cccc(CNCCc2ccccn2)c1 [Compound 40, (3-Bromo-benzyl)-(2-pyridin-2-yl-ethyl)-amine] |  |  |  |  |  | 3500 nM | 570 nM | > 5000 nM | 740 nM | > 5000 nM | 
Brc1ccc(CNCCc2ccccn2)cc1 [Compound 41, (4-Bromo-benzyl)-(2-pyridin-2-yl-ethyl)-amine] |  |  |  |  |  | > 5000 nM | 140 nM | > 5000 nM | 720 nM | > 5000 nM | 
c1ccc(CNC2CCCCCC2)cc1 [Compound 42, Benzyl-cycloheptyl-amine] |  |  |  |  |  | > 5000 nM | 150 nM | > 5000 nM | 520 nM | > 5000 nM | 
c1ccc(CNC2CCCCC2)cc1 [Compound 43, Benzyl-cyclohexyl-amine] |  |  |  |  |  | > 5000 nM | 670 nM | > 5000 nM | > 5000 nM | > 5000 nM | 
Clc1ccc(CNC2CCc3ccccc32)cc1Cl (centres unmarked) [Compound 45, (3,4-Dichloro-benzyl)-indan-1-yl-amine] | 310 nM | 1140 nM | 2000 nM | 1440 nM | > 20000 nM |  |  |  |  |  | 
Clc1ccc(CNC2CCC2)cc1Cl [Compound 46, Cyclobutyl-(3,4-dichloro-benzyl)-amine] | 1670 nM | 482 nM | 3080 nM | 1130 nM | 15800 nM |  |  |  |  |  | 
Clc1ccc(CNC2CCCCCCC2)cc1Cl [Compound 47, Cyclooctyl-(3,4-dichloro-benzyl)-amine] | 100 nM | 340 nM | 1190 nM | 500 nM | 15000 nM |  |  |  |  |  | 

Reference: patent US11044909B2, “Composition for destruction of microalgae or sphaerocarpus” (CUREARTH, INC., priority 2015, dated 2021)
